{"source": "patent US10125129B2", "about": "(priority 2016, dated 2018)"}
{"target": "T1, μ opioid receptor (MOR) (Homo sapiens, UniProt P35372)", "T1 construct": "expressed in transfected cells", "T1 sequence (P35372 whole entry)": "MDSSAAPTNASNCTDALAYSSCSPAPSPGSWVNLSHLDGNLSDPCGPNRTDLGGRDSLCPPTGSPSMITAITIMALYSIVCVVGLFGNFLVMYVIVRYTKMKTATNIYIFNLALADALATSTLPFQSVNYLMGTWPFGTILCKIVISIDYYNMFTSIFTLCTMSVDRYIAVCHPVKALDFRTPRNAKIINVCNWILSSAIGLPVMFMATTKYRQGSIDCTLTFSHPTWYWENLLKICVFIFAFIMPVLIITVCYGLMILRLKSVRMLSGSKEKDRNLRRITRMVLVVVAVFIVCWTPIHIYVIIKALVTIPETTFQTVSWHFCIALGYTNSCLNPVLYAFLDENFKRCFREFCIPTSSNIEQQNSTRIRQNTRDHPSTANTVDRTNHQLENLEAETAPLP", "experiment": "cell-based", "type": "cell-based", "settings": "EC50", "units": {"EC50": "nM"}}
{"smiles": "COC(=O)[C@@H]1C=C(OC(=O)c2cocn2)C(=O)[C@H]2[C@@]1(C)CC[C@H]1C(=O)O[C@H](c3ccoc3)C[C@]21C", "note": "[Table 3 Entry 9, (2S,4aR,6aR,7R,10aR,10bR)-2-(Furan-3-yl)-7-(methoxycarbonyl)-6a,10b-dimethyl-4,10-dioxo-2,4,4a,5,6,6a,10,10a,10b-decahydro-1H-benzo[f]isochromen-9-yl oxazole-4-carboxylate]", "EC50": "30 ± 2"}
{"smiles": "COC(=O)[C@@H]1C=C(OC(=O)c2cc3ccccc3s2)C(=O)[C@H]2[C@@]1(C)CC[C@H]1C(=O)O[C@H](c3ccoc3)C[C@]21C", "note": "[Table 3 Entry 13]", "EC50": "6 ± 1"}
{"smiles": "COC(=O)[C@@H]1C=C(OC(=O)CCc2ccccc2)C(=O)[C@H]2[C@@]1(C)CC[C@H]1C(=O)O[C@H](c3ccoc3)C[C@]21C", "note": "[Table 3 Entry 5, (2S,4aR,6aR,7R,10 aR,10bR)-Methyl 2-(furan-3-yl)-6a,10bdimethyl-4,10-dioxo-9-((3-phenylpropanoyl)oxy)-2,4,4a,5,6,6a,7,10,10a,10b-decahydro-1H-benzo[f]isochromene-7-carboxylate]", "EC50": "500 ± 200"}
{"smiles": "COC(=O)[C@@H]1C=C(OC(=O)c2cscn2)C(=O)[C@H]2[C@@]1(C)CC[C@H]1C(=O)O[C@H](c3ccoc3)C[C@]21C", "note": "[Table 3 Entry 7, (2S,4aR,6aR,7R,10aR,10bR)-2-(Furan-3-yl)-7-(methoxycarbonyl)-6a,10b-dimethyl-4,10-dioxo-2,4,4a,5,6,6a,7,10,10a,10b-decahydro-1H-benzo[f]isochromen-9-yl thiazole-4-carboxylate]", "EC50": "8 ± 3"}
{"smiles": "COC(=O)[C@@H]1C=C(OC(=O)c2cncnc2)C(=O)[C@H]2[C@@]1(C)CC[C@H]1C(=O)O[C@H](c3ccoc3)C[C@]21C", "note": "[Table 3 Entry 11, (2S,4aR,6aR,7R,10aR,10bR)-2-(Furan-3-yl)-7-(methoxycarbonyl)-6a,10b-dimethyl-4,10-dioxo-2,4,4a,5,6,6a,7,10,10a,10b-decahydro-1H-benzo[f]isochromen-9-yl pyrimidine-5-carboxylate]", "EC50": "6 ± 1"}
{"target": "T1, μ opioid receptor (MOR)", "experiment": "cell-based", "type": "cell-based", "settings": "Series 1 EC50", "units": {"EC50": "nM"}}
{"smiles": "COC(=O)[C@@H]1C[C@H](OC(=O)c2ccccc2F)C(=O)[C@H]2[C@@]1(C)CC[C@H]1C(=O)O[C@H](c3ccoc3)C[C@]21C", "note": "[Series 1 Entry 8, (2S,4aR,6aR,7R,9S,10aS,10bR)-Methyl 9-((2-fluorobenzoyl)oxy)-2-(furan-3-yl)-6a,10b-dimethyl-4,10-dioxododecahydro-1H-benzo[f]isochromene-7-carboxylate]", "EC50": "400 ± 100"}
{"smiles": "COC(=O)[C@@H]1C[C@H](OC(=O)c2ccccn2)C(=O)[C@H]2[C@@]1(C)CC[C@H]1C(=O)O[C@H](c3ccoc3)C[C@]21C", "note": "[Series 1 Entry 17, (2S,4aR,6aR,7R,9S,10aS,10bR)-2-(furan-3-yl)-7-(methoxycarbonyl)-6a,10b-dimethyl-4,10-dioxododecahydro-2H-benzo[f]isochromen-9-yl picolinate]", "EC50": "> 50000"}
{"smiles": "COC(=O)[C@@H]1C[C@H](OC(=O)c2cccnc2)C(=O)[C@H]2[C@@]1(C)CC[C@H]1C(=O)O[C@H](c3ccoc3)C[C@]21C", "note": "[Series 1 Entry 18]", "EC50": "240 ± 20"}
{"smiles": "COC(=O)[C@@H]1C[C@H](OC(=O)c2ccccc2C)C(=O)[C@H]2[C@@]1(C)CC[C@H]1C(=O)O[C@H](c3ccoc3)C[C@]21C", "note": "[Series 1 Entry 11, (2S,4aR,6aR,7R,9S,10aS,10bR)-Methyl 2-(furan-3-yl)-6a,10b-dimethyl-9-((2-methylbenzoyl)oxy)-4,10-dioxododecahydro-1H-benzo[f]isochromene-7-carboxylate]", "EC50": "1600 ± 400"}
{"smiles": "COC(=O)[C@@H]1C[C@H](OC(=O)c2ccccc2OC)C(=O)[C@H]2[C@@]1(C)CC[C@H]1C(=O)O[C@H](c3ccoc3)C[C@]21C", "note": "[Series 1 Entry 14]", "EC50": "3300 ± 300"}
{"target": "T1, μ opioid receptor (MOR)", "experiment": "cell-based", "type": "cell-based", "settings": "Series 2 EC50", "units": {"EC50": "nM"}}
{"smiles": "COC(=O)[C@@H]1C=C(OC(=O)c2cccc(F)c2)C(=O)[C@H]2[C@@]1(C)CC[C@H]1C(=O)O[C@H](c3ccoc3)C[C@]21C", "note": "[Series 2 Entry 9, (2S,4aR,6aR,7R,10aR,10bR)-Methyl 9-((3-fluorobenzoyl)oxy)-2-(furan-3-yl)-6a,10b-dimethyl-4,10-dioxo-2,4,4a,5,6,6a,7,10,10a,10b-decahydro-1H-benzo[f]isochromene-7-carboxylate]", "EC50": "15 ± 2"}
{"smiles": "COC(=O)[C@@H]1C=C(OC(=O)c2cc3ccccc3o2)C(=O)[C@H]2[C@@]1(C)CC[C@H]1C(=O)O[C@H](c3ccoc3)C[C@]21C", "note": "[Series 2 Entry 22, (2S,4aR,6aR,7R,10aR,10bR)-Methyl 9-((benzofuran-2-carbonyl)oxy)-2-(furan-3-yl)-6a,10-dimethyl-4,10-dioxo-2,4,4a,5,6,6a,7,10,10a,10bdecahydro-1H-benzo[f]isochromene-7-carboxylate]", "EC50": "31 ± 9"}
{"smiles": "COC(=O)[C@@H]1C=C(OC(=O)c2ccccc2F)C(=O)[C@H]2[C@@]1(C)CC[C@H]1C(=O)O[C@H](c3ccoc3)C[C@]21C", "note": "[Series 2 Entry 8]", "EC50": "4.7 ± 0.4"}
{"smiles": "COC(=O)[C@@H]1C=C(OC(=O)c2ccccn2)C(=O)[C@H]2[C@@]1(C)CC[C@H]1C(=O)O[C@H](c3ccoc3)C[C@]21C", "note": "[Series 2 Entry 17, (2S,4aR,6aR,7R,10aR,10bR)-2-(Furan-3-yl)-7-(methoxycarbonyl)-6a,10b-dimethyl-4,10-dioxo-2,4,4a,5,6,6a,7,10,10bdecahydro-1H-benzo[f]isochromen-9-yl picolinate]", "EC50": "410 ± 50"}
{"smiles": "COC(=O)[C@@H]1C=C(OC(=O)c2ccccc2[N+](=O)[O-])C(=O)[C@H]2[C@@]1(C)CC[C@H]1C(=O)O[C@H](c3ccoc3)C[C@]21C", "note": "[Series 2 Entry 2, (2S,4aR,6aR,7R,10aR,10bR)-Methyl 2-(furan-3-yl)-6a,10b-dimethyl-9-((2-nitrobenzoyl)oxy)-4,10-dioxo-2,4,4a,5,6,6a,7,10,10a-decahydro-1H-benzo[f]isochromene-7-carboxylate]", "EC50": "1900 ± 600"}
{"smiles": "COC(=O)[C@@H]1C=C(OC(=O)c2ccccc2OC)C(=O)[C@H]2[C@@]1(C)CC[C@H]1C(=O)O[C@H](c3ccoc3)C[C@]21C", "note": "[Series 2 Entry 14, (2S,4aR,6aR,7R,10aR,10bR)-Methyl 2-(furan-3-yl)-9-((2-methoxybenzoyl)oxy)-6a,10b-dimethyl-4,10-dioxo-2,4,4a,5,6,6a,7,10,10a,10b-decahydro-1H-benzo[f]isochromene-7-carboxylate]", "EC50": "2000 ± 1000"}
{"smiles": "COC(=O)[C@@H]1C=C(OC(=O)c2ccc(F)cc2)C(=O)[C@H]2[C@@]1(C)CC[C@H]1C(=O)O[C@H](c3ccoc3)C[C@]21C", "note": "[Series 2 Entry 10, (2S,4aR,6aR,7R,10aR,10bR)-Methyl 9-((4-fluorobenzoyl)oxy)-2-(furan-3-yl)-6a,10b-dimethyl-4,10-dioxo-2,4,4a,5,6,6a,7,10,10a,10b-decahydro-1H-benzo[f]isochromene-7-carboxylate]", "EC50": "5 ± 1"}
{"target": "T1, μ opioid receptor (MOR)", "experiment": "cell-based", "type": "cell-based", "settings": "read-out: Series 2 EC50", "units": {"EC50": "nM"}}
{"smiles": "COC(=O)[C@@H]1C=C(OC(=O)c2cccc(OC)c2)C(=O)[C@H]2[C@@]1(C)CC[C@H]1C(=O)O[C@H](c3ccoc3)C[C@]21C", "note": "[Series 2 Entry 15, (2S,4aR,6aR,7R,10aR,10bR)-Methyl 2-(furan-3-yl)-9-((3-methoxybenzoyl)oxy)-6a,10b-dimethyl-4,10-dioxo-2,4,4a,5,6,6a,7,10,10a,10b-decahydro-1H-benzo[f]isochromene-7-carboxylate]", "EC50": "11 ± 2"}
